From ChEMBL document CHEMBL3046850, “In vivo antifilarial activity of some cyclic and acylic alcohols” (2011)
Activity calls are given as the source filed them. The calls are words filed in the database; no cut-off is given here.

Tests used:
Acanthocheilonema viteae [1] = assay: Antifilarial activity against Acanthocheilonema viteae infected Mastomys coucha assessed as sterilization of female worms at 50 mg/kg, ip for 5 days relative to control; format: functional, organism-based; set-up: dose 50 mg/kg
Acanthocheilonema viteae [2] = assay: Antifilarial activity against Acanthocheilonema viteae infected Mastomys coucha assessed as microfilariacidal activity at 50 mg/kg, ip for 5 days relative to control; format: functional
Acanthocheilonema viteae [3] = assay: Antifilarial activity against Acanthocheilonema viteae infected Mastomys coucha assessed as macrofilariacidal activity at 50 mg/kg, ip for 5 days relative to control; format: functional
Acanthocheilonema viteae [4] = assay: Antifilarial activity against Acanthocheilonema viteae infected Mastomys coucha assessed as macrofilariacidal activity at 200 mg/kg, ip for 5 days relative to control; format: functional; conditions: route intraperitoneal
Acanthocheilonema viteae [5] = assay: Antifilarial activity against Acanthocheilonema viteae infected Mastomys coucha assessed as sterilization of female worms at 100 mg/kg, po for 5 days relative to control; format: functional

Compound: OC1CCCCC1N1CCC(Cc2ccccc2)CC1 (stereo not given)
- Activity (Acanthocheilonema viteae [1]): inactive
- Activity (Acanthocheilonema viteae [2]): inactive
- Activity (Acanthocheilonema viteae [3]): inactive

Compound: CN1CCN(C2CCCCC2O)CC1 (stereo not given)
- Activity (Acanthocheilonema viteae [1]): inactive
- Activity (Acanthocheilonema viteae [2]): inactive

Compound: CC(=O)OC(C)Nc1ccco1 (stereo not given)
- Activity (Acanthocheilonema viteae [1]): inactive
- Activity (Acanthocheilonema viteae [2]): inactive
- Activity (Acanthocheilonema viteae [3]): inactive

Compound: CC(O)Nc1ccco1 (stereo not given)
- Activity (Acanthocheilonema viteae [4]): 81.3%
- Activity (Acanthocheilonema viteae [5]): 82%
- Activity (Acanthocheilonema viteae [2]): inactive

Compound: CC(=O)OC(C)N1CCC(Cc2ccccc2)CC1 (stereo not given)
- Activity (Acanthocheilonema viteae [1]): inactive
- Activity (Acanthocheilonema viteae [4]): 83.4%
- Activity (Acanthocheilonema viteae [2]): inactive

Compound: CC(O)N1CCC(Cc2ccccc2)CC1 (stereo not given)
- Activity (Acanthocheilonema viteae [1]): inactive
- Activity (Acanthocheilonema viteae [2]): inactive
- Activity (Acanthocheilonema viteae [3]): inactive

Compound: CC(O)N1CCCCC1C (stereo not given)
- Activity (Acanthocheilonema viteae [1]): inactive
- Activity (Acanthocheilonema viteae [2]): inactive
- Activity (Acanthocheilonema viteae [3]): inactive

Compound: CC(=O)OC1CCCCC1N1CCN(C)CC1 (stereo not given)
- Activity (Acanthocheilonema viteae [1]): inactive
- Activity (Acanthocheilonema viteae [2]): inactive
- Activity (Acanthocheilonema viteae [3]): inactive

Compound: CC(=O)OC1CCCCC1Nc1ccccc1 (stereo not given)
- Activity (Acanthocheilonema viteae [1]): inactive
- Activity (Acanthocheilonema viteae [2]): inactive
- Activity (Acanthocheilonema viteae [3]): inactive

Compound: CC(=O)OC1CCCCC1N1CCOCC1 (stereo not given)
- Activity (Acanthocheilonema viteae [1]): inactive
- Activity (Acanthocheilonema viteae [2]): inactive
- Activity (Acanthocheilonema viteae [3]): inactive

Compound: CC(=O)OC1CCCCC1N1CCCCC1 (stereo not given)
- Activity (Acanthocheilonema viteae [1]): inactive
- Activity (Acanthocheilonema viteae [2]): inactive
- Activity (Acanthocheilonema viteae [3]): inactive

Compound: OC1CCCCC1Nc1ccccc1 (stereo not given)
- Activity (Acanthocheilonema viteae [1]): inactive
- Activity (Acanthocheilonema viteae [2]): inactive
- Activity (Acanthocheilonema viteae [3]): inactive

Compound: CC(=O)OC1CCCCC1N1CCC(Cc2ccccc2)CC1 (stereo not given)
- Activity (Acanthocheilonema viteae [1]): inactive
- Activity (Acanthocheilonema viteae [2]): inactive
- Activity (Acanthocheilonema viteae [3]): inactive

Compound: OC1CCCCC1N1CCOCC1 (stereo not given)
- Activity (Acanthocheilonema viteae [1]): inactive
- Activity (Acanthocheilonema viteae [2]): inactive
- Activity (Acanthocheilonema viteae [3]): inactive

Compound: OC1CCCCC1N1CCCCC1 (stereo not given)
- Activity (Acanthocheilonema viteae [1]): inactive
- Activity (Acanthocheilonema viteae [2]): inactive
- Activity (Acanthocheilonema viteae [3]; route intraperitoneal): 88.9%

Compound: CCN(CC)C(=O)N1CCN(C)CC1 [DIETHYLCARBAMAZINE]
- Activity (Acanthocheilonema viteae [1]): inactive
- Activity (Acanthocheilonema viteae [2]; route intraperitoneal): 90%
- Activity (Acanthocheilonema viteae [3]): inactive

Compound: CC(=O)OC(C)N1CCCCC1C (stereo not given)
- Activity (Acanthocheilonema viteae [1]): inactive
- Activity (Acanthocheilonema viteae [2]): inactive
- Activity (Acanthocheilonema viteae [3]): inactive
